Laboratory results from US11045409B2, “Composition comprising a water-insoluble solid organic UV-screening agent and a compound capable of establishing hydrogen bonds” (L'OREAL, priority 2013, dated 2021).

Assay: Maximum solubility of UV-screening agents in compound (B)/isododecane mixtures
Format: physicochemical
Details: sonication 45° C. 30 minutes, stable two months at room temperature
Method: Solubility Test of the Screening Agents (A) in Mixtures of Compounds (B) and of Isododecane —
300 mg of water-insoluble solid UV-screening agent (A) or of UV-screening agent outside the invention were weighed out in a 10 ml flask, and compound (B) (as a mixture at 50% by weight in isododecane) was then added in increasing amounts until dissolution of the screening agent was complete. The dissolution was performed by sonication at 45° C. for 30 minutes, followed by cooling to room temperature. […] The maximum solubility was given in w/w %, which represents the mass percentage of UV-screening agent in the (B)/isododecane/UV-screening agent mixture. The maximum solubility of the solid screening agent (A) in a solution of isododecane alone (Bo) was also measured as reference.

[1] = in compound (B1) at 50% by weight in isododecane
[2] = in compound (B2) at 50% by weight in isododecane
[3] = in isododecane alone (B0), reference

| SMILES | Maximum solubility of the UV-screening agent [1] | Maximum solubility of the UV-screening agent [2] | Maximum solubility of the UV-screening agent [3] |
| --- | --- | --- | --- |
| COc1ccc(C(=O)CC(=O)c2ccc(C(C)(C)C)cc2)cc1 [UV-screening agent No. 1, Butylmethoxydibenzoylmethane] | 15 w/w % | 15 w/w % | 1 w/w % |
| Cc1cc(CC(C)C[Si](C)(O[Si](C)(C)C)O[Si](C)(C)C)c(O)c(-n2nc3ccccc3n2)c1 (stereo not drawn) [UV-screening agent No. 2, Drometrizole Trisiloxane] | 30 w/w % | 30 w/w % | 5 w/w % |
| CCCCCCCCOC(=O)/C(C#N)=C\C=C\N(CCO)CCO [UV-screening agent No. 3] | 5 w/w % | 2.5 w/w % | insoluble |
| CCCCCCCCOC(=O)/C(C#N)=C\C=C\N(CC)CC [UV-screening agent No. 4] | 2.5 w/w % | 5 w/w % | insoluble |
| CCCCC(CC)COc1ccc(-c2nc(-c3ccc(OC)cc3)nc(-c3ccc(OCC(CC)CCCC)cc3O)n2)c(O)c1 (stereo not drawn) [UV-screening agent No. 8, 2,4-bis{[4-(2-ethylhexyloxy)-2-hydroxy]phenyl}-6-(4-methoxyphenyl)-1,3,5-triazine] | 5 w/w % | 5 w/w % | 1 w/w % |
